Source: patent US10842847B2, “Treatment of degenerative joint disease” (Ampio Pharmaceuticals, Inc., priority 2011, dated 2020)
Entries after “also recorded” stand apart in the source; their conditions may differ.

Tested on: oxidized collagen IV
Test: Binding of DA-DKP and NAT to H2O2 treated collagen IV (LCMS of <5 kDa fraction)
Set-up: species or system human
Conditions: for binding to oxidized collagen, result in words: equimolar concentration
Description: Collagen source: 1 mg/ml Collagen IV form human placenta in 0.25% acetic acid (Sigma™). The collagen was oxidixed with 500 μM H2O2 in 1×PBS for 1 hour at 37° C. The oxidized collagen IV (final=0.2 mg/ml) was then incubated with 2 μM DA-DKP or 2 NAT in PBS for 1 hour at 37° C. At the end of the incubation, the <5 kDa fraction was isolated by a VIVASPIN® 2 microcentrifugal filter having a molecular weight cutoff of 5,000. The <5 kDa fraction was analyzed for DA-DKP and/or NAT content using a liquid chromatograph-mass spectrometery (LCMS) method for DA-DKP analysis.

[1] = 2 μM + oxidized Collagen IV 0.2 mg/ml, 1 hour at 37° C., content of <5 kDa fraction

Row | SMILES | Average % decrease [1] | Average % decrease (2 μM + oxidized Collagen IV w/2 μM NAT) | binding to oxidized collagen, result in words | Average % decrease (2 μM + oxidized Collagen IV w/2 μM DA-DKP)
1 | C[C@@H]1NC(=O)[C@H](CC(=O)O)NC1=O [DA-DKP, aspartyl-alanyl diketopiperazine] | 26.0% | 25.6% | bind to oxidized forms of collagen | –
2 | CC(=O)N[C@@H](Cc1c[nH]c2ccccc12)C(=O)O [NAT, N-acetyl-tryptophan] | 48.9% | – | binds more to oxidized collagen IV than DA-DKP; also recorded: bind to oxidized forms of collagen | 28.7%
